Assay results published in patent publication US20220257698A1, “ANGIOTENSIN TYPE 2 (AT2) RECEPTOR AGONISTS FOR USE IN THE TREATMENT OF CANCER” (LANTHIOPEP B.V., priority 2019, published 2022).

Test system: head & neck carcinoma PDX model HN10309
Assay: KcAng(1-7) on growth of head & neck carcinoma PDX HN10309 in mice
Assay type: in vivo, NMRI nu/nu mice (human PDX)
Method: In vivo studies were conducted at EPO GmbH Berlin. Large studies (FIG. 1A, 2, 3, 4, 5) comprised 3 groups of 10 mice/group and 5 animals as reserve, as outlined in Table 1. Smaller studies (FIG. 1B, 1C, 1D) comprised 2 groups of mice of 3 mice per group. The animals were allocated to the various treatment groups (e.g. 0.2 μg/kg and 30 μg/kg) with a maximum of 10 animals per group. […] The groups received subcutaneous (s.c.) drug injection (for max. 28 days) as outlined in the Table 1.
NMRI nu/nu mice were used in this study. The animals were female at age of 6 to 8 weeks. The respective PDX tumors were inoculated subcutaneously (s.c.), and the tumors were grown to achieve palpable tumor sizes before start of the respective treatments. The PDX included breast (MaCa4151), colon (Co9689A), head & neck (HN10309), lung (Lu7433) and ovarian (OvCa13329) cancer (Table 2).
Treatment with KcAng(1-7) was started with palpable tumors after the randomization of animals regarding tumor volume. KcAng(1-7) was applied s.c. by daily injections at […] or 30 μg/kg dose for a maximum of 28 days (or earlier as defined by the humane end point for the study).
KcAng(1-7) was prepared as follows: The compounds was suspended in sterile PBS resulting in a clear solution. The remains of this formulation were stored at 4° C.
Tumor growth stimulatory or inhibitory activity of the KcAng(1-7) was evaluated by determination of tumor volumes (TV). During the study, tumor volumes and body weight were measured twice a week, and the ratio of the mean tumor volumes between the compound-treated group and the vehicle-treated group (T/C) was calculated.
Tumor volume=(tumor width)×(tumor width)×(tumor length)+2
T/C=T÷C • T: Mean estimated tumor volume of the compound-treated group • C: Mean estimated tumor volume of the vehicle-treated group

[1] = Gr. B 0.2 μg/kg/d s.c., Day 35 (Meas. 1)
[2] = Gr. B 0.2 μg/kg/d s.c., Day 38 (Meas. 2)
[3] = Gr. B 0.2 μg/kg/d s.c., Day 41 (Meas. 3)
[4] = Gr. B 0.2 μg/kg/d s.c., Day 45 (Meas. 4)
[5] = Gr. B 0.2 μg/kg/d s.c., Day 49 (Meas. 5)
[6] = Gr. B 0.2 μg/kg/d s.c., Day 52 (Meas. 6)
[7] = Gr. B 0.2 μg/kg/d s.c., Day 55 (Meas. 7)
[8] = Gr. B 0.2 μg/kg/d s.c., Day 58 (Meas. 8)
[9] = Gr. B 0.2 μg/kg/d s.c., Day 63 (Meas. 9)
[10] = Gr. C 30 μg/kg/d s.c., Day 35 (Meas. 1)
[11] = Gr. C 30 μg/kg/d s.c., Day 38 (Meas. 2)
[12] = Gr. C 30 μg/kg/d s.c., Day 41 (Meas. 3)
[13] = Gr. C 30 μg/kg/d s.c., Day 45 (Meas. 4)
[14] = Gr. C 30 μg/kg/d s.c., Day 49 (Meas. 5)
[15] = Gr. C 30 μg/kg/d s.c., Day 52 (Meas. 6)
[16] = Gr. C 30 μg/kg/d s.c., Day 55 (Meas. 7)
[17] = Gr. C 30 μg/kg/d s.c., Day 58 (Meas. 8)
[18] = Gr. C 30 μg/kg/d s.c., Day 63 (Meas. 9)

Lys-Asp-Arg-Val-Abu/Ala-Ile-His-Abu/Ala (KDRVAIHA; not fully specified; cyclic thioether (Abu/Ala bridge); VARIANT (5)..(5) /replace=“Abu”; VARIANT (8)..(8) /replace=“Abu”; SITE (1)..(8) /note=“Variant residues given in the sequence have no preference with respect to those in the annotations for variant positions”) [KcAng(1-7)]
optT/C (30 μg/kg, day 14 of the treatment): 71% | effect on tumor volume (0.2 and 30 μg/kg, 28 days): did not result in a reduction or increase in tumor volume | RTV Mean [1]: 1 | RTV Median [1]: 1 | T/C [1]: 100.1% | Tumor Vol. Mean [1]: 0.083 cm^3 | Tumor Vol. Median [1]: 0.064 cm^3 | RTV Mean [2]: 1.6 | RTV Median [2]: 1.7 | T/C [2]: 107.9% | Tumor Vol. Mean [2]: 0.128 cm^3 | Tumor Vol. Median [2]: 0.085 cm^3 | RTV Mean [3]: 2.1 | RTV Median [3]: 2.1 | T/C [3]: 100.6% | Tumor Vol. Mean [3]: 0.164 cm^3 | Tumor Vol. Median [3]: 0.14 cm^3 | RTV Mean [4]: 2.6 | RTV Median [4]: 2.5 | T/C [4]: 116.7% | Tumor Vol. Mean [4]: 0.217 cm^3 | Tumor Vol. Median [4]: 0.158 cm^3 | RTV Mean [5]: 3.3 | RTV Median [5]: 3.2 | T/C [5]: 104.4% | Tumor Vol. Mean [5]: 0.275 cm^3 | Tumor Vol. Median [5]: 0.209 cm^3 | RTV Mean [6]: 4.4 | RTV Median [6]: 4 | T/C [6]: 126.7% | Tumor Vol. Mean [6]: 0.367 cm^3 | Tumor Vol. Median [6]: 0.303 cm^3 | RTV Mean [7]: 5.4 | RTV Median [7]: 4.8 | T/C [7]: 126.5% | Tumor Vol. Mean [7]: 0.443 cm^3 | Tumor Vol. Median [7]: 0.366 cm^3 | RTV Mean [8]: 5.8 | RTV Median [8]: 4.9 | T/C [8]: 115.2% | Tumor Vol. Mean [8]: 0.473 cm^3 | Tumor Vol. Median [8]: 0.437 cm^3 | RTV Mean [9]: 8.9 | RTV Median [9]: 7.3 | T/C [9]: 120.4% | Tumor Vol. Mean [9]: 0.677 cm^3 | Tumor Vol. Median [9]: 0.64 cm^3 | RTV Mean [10]: 1 | RTV Median [10]: 1 | T/C [10]: 99.5% | Tumor Vol. Mean [10]: 0.083 cm^3 | Tumor Vol. Median [10]: 0.077 cm^3 | RTV Mean [11]: 1.3 | RTV Median [11]: 1.3 | T/C [11]: 83.5% | Tumor Vol. Mean [11]: 0.099 cm^3 | Tumor Vol. Median [11]: 0.092 cm^3 | RTV Mean [12]: 1.6 | RTV Median [12]: 1.5 | T/C [12]: 74.6% | Tumor Vol. Mean [12]: 0.122 cm^3 | Tumor Vol. Median [12]: 0.117 cm^3 | RTV Mean [13]: 1.8 | RTV Median [13]: 1.7 | T/C [13]: 75% | Tumor Vol. Mean [13]: 0.139 cm^3 | Tumor Vol. Median [13]: 0.135 cm^3 | RTV Mean [14]: 2.2 | RTV Median [14]: 2.2 | T/C [14]: 71.3% | Tumor Vol. Mean [14]: 0.188 cm^3 | Tumor Vol. Median [14]: 0.187 cm^3 | RTV Mean [15]: 2.8 | RTV Median [15]: 2.9 | T/C [15]: 89.8% | Tumor Vol. Mean [15]: 0.26 cm^3 | Tumor Vol. Median [15]: 0.236 cm^3 | RTV Mean [16]: 3.5 | RTV Median [16]: 3.5 | T/C [16]: 92.1% | Tumor Vol. Mean [16]: 0.323 cm^3 | Tumor Vol. Median [16]: 0.283 cm^3 | RTV Mean [17]: 3.9 | RTV Median [17]: 4 | T/C [17]: 89.3% | Tumor Vol. Mean [17]: 0.367 cm^3 | Tumor Vol. Median [17]: 0.303 cm^3 | RTV Mean [18]: 5.6 | RTV Median [18]: 5.8 | T/C [18]: 96.3% | Tumor Vol. Mean [18]: 0.541 cm^3 | Tumor Vol. Median [18]: 0.505 cm^3
